From US8188059B2, “Compounds and methods for modulating expression of GCGR” (Isis Pharmaceuticals, Inc., priority 2006, dated 2012)
Strand notation (5' to 3'): a small letter for the sugar, then the base; units joined by * are phosphorothioate-linked, units joined directly phosphodiester-linked; [ ] holds rarer units or linkages, { } end groups; capitals alone tell only the bases. e = 2'-O-(2-methoxyethyl) (MOE); [5mC] = 5-methylcytosine; d = 2'-deoxy (DNA)

Assays:
PTP1B mRNA [1] = experiment: Dose response for human PTP1B in HuVEC cells, Primer Probe Set 198 (Example 25, Table 86); assay type: cell-based
Description: (§1) Human vascular endothelial (HuVEC) cells were plated at a density of 5000 cells per well and treated as described herein with nM concentrations of short antisense compound as indicated in Table 86. After the treatment period, RNA was isolated from the cells and PTP1B mRNA levels were measured by quantitative real-time PCR, as described herein. PTP1B mRNA levels were adjusted according to total RNA content as measured by RIBOGREEN®. Two different human PTP1B primer probe sets were used to measure mRNA levels. Results with Primer Probe Set (PPS) 198 are shown in Table 86, and results with Primer Probe Set (PPS) 3000 are shown in Table 87. Results are presented as percent inhibition of PTP1B mRNA expression relative to untreated control cells.

PTP1B mRNA [2] = experiment: Dose response for human PTP1B in HuVEC cells, Primer Probe Set 3000 (Example 25, Table 87); assay type: cell-based
Description: as §1

[3] = Triglyceride, cholesterol and glucose levels, pre-bleed and post-bleed (Example 4, Table 34); assay type: in vivo, mouse
Description: Eight-week old male C57/BL6 mice (Jackson Laboratory, Bar Harbor, Me.) were administered a single dose of GCGR oligonucleotide by intraperitoneal injection at a concentration of […]. Each dose group consisted of four animals. Shown in Table 31 are the sequences, motifs and conjugates of the GCGR antisense compounds used in this study. Bolded residues indicate 2′-O-methoxyethyl (2′-MOE) moieties. All compounds comprise phosphorothioate internucleoside linkages throughout and each cytosine is replaced with 5-methylcytosine. ISIS 386626, ISIS 386627 and ISIS 386628 further comprise a C16 conjugate group attached to the 2′-O position of the sugar via a diamide linkage (2′-OCH2C(═O)N(H)(CH2)4N(H)C(═O)—(CH2)15CH3). GCGR antisense compounds target published GCGR sequences, including Genbank® Accession No. BC031885.1 (SEQ ID NO: 7).
Mice were sacrificed 48 hours following injection to determine serum transaminase levels (Table 32); liver, white adipose tissue (WAT), spleen and kidney weight (Table 33); cholesterol, triglyceride and glucose levels (Table 34); GCGR mRNA levels (Tables 35-41); and full-length and total oligonucleotide concentration in liver and kidney (Table 42). Endpoints were assessed using methods described herein and well known to those of ordinary skill in the art. Data is included from a pre-treatment bleed (Pre-Bleed) and post-treatment bleed (Post-Bleed).

PCSK9 mRNA = assay type: cell-based, human; details: Hep3B cells, 100 nM, relative to untreated control cells; for % Inhib (PCSK9 mRNA): 0 = no reduction observed
Description: When cells reached appropriate confluency, they were treated with oligonucleotide using LIPOFECTIN® as described. […] Cells were treated and data were obtained in duplicate or triplicate. […] Cells were harvested 16-24 hours after oligonucleotide treatment.
Short antisense compounds targeted to a PCSK9 nucleic acid were tested for their effects on PCSK9 mRNA in vitro. The Isis No, gapmer motif and SEQ ID NO of each short antisense compound are shown again in Table 75. Cultured Hep3B cells were treated with 100 nM of short antisense compound. 5-10-5 MOE gapmers targeted to a PCSK9 nucleic acid were used as positive controls. After the treatment period, RNA was isolated from the cells and PCSK9 mRNA levels were measured by quantitative real-time PCR, as described herein. PCSK9 mRNA levels were adjusted according to total RNA content as measured by RIBOGREEN®. Results are presented in Table 75 as percent inhibition of PCSK9 (% Inhib), relative to untreated control cells.

Substance | % Inhibition of PTP1B mRNA (PTP1B mRNA [1]; PPS 198, 1.11 nM) [%] | % Inhibition of PTP1B mRNA (PTP1B mRNA [1]; PPS 198, 3.33 nM) [%] | % Inhibition of PTP1B mRNA (PTP1B mRNA [1]; PPS 198, 10.0 nM) [%] | % Inhibition of PTP1B mRNA (PTP1B mRNA [1]; PPS 198, 30.0 nM) [%] | % Inhibition of PTP1B mRNA (PTP1B mRNA [2]; PPS 3000, 1.11 nM) [%] | % Inhibition of PTP1B mRNA (PTP1B mRNA [2]; PPS 3000, 3.33 nM) [%] | % Inhibition of PTP1B mRNA (PTP1B mRNA [2]; PPS 3000, 10.0 nM) [%] | % Inhibition of PTP1B mRNA (PTP1B mRNA [2]; PPS 3000, 30.0 nM) [%] | post-bleed glucose levels ([3]; C57/BL6 mice, single i.p. dose, 48 hours) | post-bleed triglyceride levels ([3]; relative to the 5-10-5 MOE gapmer) | % Inhibition Range (PCSK9 mRNA) (PCSK9 mRNA) | % Inhib (PCSK9 mRNA) (PCSK9 mRNA) [%]
399102 (antisense eG*eA*dA*dG*dT*d[5mC]*dA*d[5mC]*dT*dG*dG*d[5mC]*eT*eT) [compound 399102] | 0 | 15 | 62 | 88 | 0 | 9 | 60 | 87 |  |  |  | 
398105 (antisense eT*eG*d[5mC]*dA*d[5mC]*dA*dG*dG*d[5mC]*dA*dG*dG*eT*eT) [compound 398105] | 0 | 25 | 79 | 90 | 0 | 35 | 79 | 93 |  |  |  | 
398173 (antisense e[5mC]*dA*dG*d[5mC]*d[5mC]*dT*dG*dG*dG*d[5mC]*dA*e[5mC]) [compound 398173] | 0 | 4 | 80 | 97 | 0 | 18 | 80 | 90 |  |  |  | 
399315 (antisense eG*eG*d[5mC]*dA*dA*d[5mC]*dT*dT*d[5mC]*dA*dA*d[5mC]*e[5mC]*eT) [compound 399315] | 0 | 20 | 68 | 88 | 0 | 25 | 71 | 93 |  |  |  | 
399276 (antisense eG*eA*dG*dG*dT*dA*dT*d[5mC]*d[5mC]*d[5mC]*dA*dT*e[5mC]*eT) [compound 399276] | 0 | 8 | 61 | 89 | 0 | 14 | 64 | 86 |  |  |  | 
398120 (antisense eG*eT*dT*d[5mC]*dA*dA*dG*d[5mC]*dG*dG*d[5mC]*d[5mC]*eT*eA) [compound 398120] | 0 | 31 | 80 | 96 | 0 | 35 | 79 | 93 |  |  |  | 
ISIS 386628: GCGR 2-10-2 MOE gapmer with C16 conjugate group at the 2′-O position via a diamide linkage (antisense TGTCTTGCTGCTTT; chemistry not fully specified) |  |  |  |  |  |  |  |  | generally led to a decrease | greatest dose-dependent effect |  | 
399208 (antisense eA*eG*d[5mC]*dT*d[5mC]*dG*d[5mC]*dT*dA*d[5mC]*d[5mC]*dT*e[5mC]*eT) [compound 399208] | 0 | 37 | 86 | 93 | 0 | 47 | 85 | 96 |  |  |  | 
399173 (antisense eA*eT*dG*d[5mC]*dT*dA*dG*dT*dG*d[5mC]*dA*d[5mC]*eT*eA) [compound 399173] | 0 | 24 | 63 | 89 | 0 | 11 | 59 | 92 |  |  |  | 
400370 (antisense eG*e[5mC]*d[5mC]*dG*dG*d[5mC]*dT*d[5mC]*d[5mC]*dG*dG*d[5mC]*eA*eG) [compound 400370] |  |  |  |  |  |  |  |  |  |  | 10-20% | 13
400344 (eG*eG*dG*dT*dG*d[5mC]*dT*dG*dG*dG*dG*dG*eG*e[5mC]; antisense) [compound 400344] |  |  |  |  |  |  |  |  |  |  |  | 0
400305 (antisense eG*e[5mC]*d[5mC]*dT*dG*dT*d[5mC]*dT*dG*dT*dG*dG*eA*eA) [compound 400305] |  |  |  |  |  |  |  |  |  |  | 30-40% | 38
400336 (eT*e[5mC]*d[5mC]*dT*d[5mC]*dA*dG*dG*dG*dA*dA*d[5mC]*e[5mC]*eA; antisense) [compound 400336] |  |  |  |  |  |  |  |  |  |  |  | 4
